According to patent US20030228277A1, “Use of ROM production and release inhibitors to treat and prevent intraocular damage” (priority 2002, published 2003):

Tests used:
[1] = target: T1, NADPH oxidase (Homo sapiens, UniProt P04839); details: membrane bound enzyme converting oxygen to superoxide; cited from earlier work
T1 construct: host or cells: phagocytes (not specified further)

[2] = tested on: diabetic patient manifesting proliferative diabetic retinopathy; details: ophthalmic gel containing 0.5% histamine dihydrochloride; compared with patients who received no histamine
Description: The purpose of this treatment is to reduce the extent of proliferative diabetic retinopathy, to prevent further manifestations of the disease after removal of any extraretinal neovascularized tissue, and to reduce the likelihood of retinal detachment.
A patient presenting proliferative diabetic retinopathy receives the histamine treatment described herein in combination with surgical treatment of the neovascularized tissue.
Once diagnosed as entering the proliferative stage, the patient receives a full ophthalmic examination to establish a baseline of ocular health. […]
After treatment, the patients' eyes are examined on days one (1), two (2), seven (7), fifteen (15), thirty (30) and sixty (60). On each examination day, the patient is monitored. Additionally, the patient is monitored for posterior vitreous detachments using indirect ophthalmoscopy with scleral depression. Finally, the extent of PDR presented by the patient is continuously monitored through periodic retinal examinations and fluorescein angiograms to monitor the extent of venous beading, IRMA, retinal ischemia, neovascularization, and vitreal hemorrhage. […]

[3] = tested on: patient suffering from PDR; details: approximately 100 μl of a 2% histamine-containing solution injected intraocularly, repeated every two weeks
Description: As a preliminary step a patient is identified as suffering from PDR. […] The patient is monitored thereafter. The treatment is repeated every two weeks.

[4] = tested on: macular hole formation; details: 200 μl intravitreal ophthalmic solution containing 5% histamine dihydrochloride; compared with untreated eyes
Description: The described methods contemplate the use of histamine to reduce ROM levels and so as to eliminate the conditions which result in macular hole formation. Following the preliminary examination, an intravitreal injection of histamine dihydrochloride is given to patient's affected eye. If both eyes are affected, they may be treated separately. The eye is injected with the histamine ophthalmic solution intravitreally to promote a reduction of ROM levels. The eye to be treated is injected intravitreally with 200 μl of a histamine ophthalmic solution containing 5% histamine dihydrochloride to prevent or reduce ROM mediate intraocular damage.

[5] = tested on: diabetic patient manifesting preproliferative diabetic retinopathy; details: intravitreal ophthalmic solution containing 1% histamine diphosphate; compared to an untreated individual
Description: A diabetic patient manifesting preproliferative diabetic retinopathy is treated for this complication of diabetes mellitus through the intravitreal injection of a histamine compound.
This increased surveillance should include periodic retinal examinations and fluorescein angiograms to monitor the extent of venous beading, IRMA, and retinal ischemia.
When preproliferative diabetic retinopathy begins reaching the proliferative stage, treatment with an ROM inhibitor or scavenger is commenced. This stage is defined as the presence of venous beading in 2 or more quadrants, IRMA in one or more quadrants, and/or microaneurysm and dot hemorrhages in all quadrants. Once these indicia are present, the administration of a ROM inhibitor or scavenger is initiated.
The patient receives a full ophthalmic examination to establish a baseline of ocular health. […]
After treatment, the patient's eyes are examined on days one (1), two (2), seven (7), fifteen (15), thirty (30) and sixty (60). On each examination day, the patient is monitored. Additionally, the patient is monitored for posterior vitreous detachments using indirect ophthalmoscopy with scleral depression. Finally, the extent of PDR presented by the patient is continuously monitored through periodic retinal examinations and fluorescein angiograms to monitor the extent of venous beading, IRMA, and retinal ischemia.

[6] = tested on: patient manifesting age-related macular degeneration; assay: Treatment of age-related macular degeneration, intravitreal ROM scavenger; type: in vivo, human; details: intravitreal ophthalmic solution containing 0.75% superoxide dismutase; compared to untreated eyes
Description: A patient manifesting age-related macular degeneration is treated with an intravitreal injection of a scavenger of ROM, namely superoxide dismutase.
Once a patient reaches the age of 60, increased ophthalmic surveillance is performed to detect the presence of ADM.
When ADM is diagnosed, a regime of histamine treatment is commenced coupled with or without other treatments such as photocoagulation.
Following the preliminary examination, an intravitreal injection of superoxide dismutase is given to the patient's affected eye manifesting ADM. […] The eye to be treated is injected intravitreally with an ophthalmic solution containing 0.75% superoxide dismutase to prevent or reduce ROM mediate intraocular damage.
Because of the possibility of reoccurrence, the patient should return for periodic examinations on a monthly basis thereafter. […] Additional superoxide dismutase and/or laser treatments may be required if indicia of reoccurring neovascularization are observed.

NC(=O)C1=CN([C@@H]2O[C@H](COP(=O)(O)OP(=O)(O)OC[C@H]3O[C@@H](n4cnc5c(N)ncnc54)[C@H](O)[C@@H]3O)[C@@H](O)[C@H]2O)C=CC1 [NADH]
Km [1]: 450 µM

NC(=O)C1=CN([C@@H]2O[C@H](COP(=O)(O)OP(=O)(O)OC[C@H]3O[C@@H](n4cnc5c(N)ncnc54)[C@H](OP(=O)(O)O)[C@@H]3O)[C@@H](O)[C@H]2O)C=CC1 [NADPH]
Km [1]: 45 µM

Cl.Cl.NCCc1c[nH]cn1 [histamine dihydrochloride]
development of posterior vitreous detachments [2]: reduction in the development of posterior vitreous detachments

NCCc1c[nH]cn1 [histamine]
symptoms associated with PDR [3]: reduction in symptoms associated with PDR
incidence of macular hole formation [4]: reduction in the incidence of macular hole formation

histamine diphosphate
development of proliferative diabetic retinopathy [5]: reduction in the development of proliferative diabetic retinopathy

superoxide dismutase
ocular health [6]: improvement in ocular health
